The record followed here is patent US20220125803A1, “METHODS FOR THE TREATMENT OF PERIMENOPAUSE AND MENOPAUSE” (Praxis Precision Medicines, Inc., priority 2019, published 2022).

Data set [1] deals with women that are perimenopausal with depression. The experiment in a line: Open label trial, safety/tolerability. The data set is classed as in vivo, human. The note with it: one patient, 60 mg dose once a day for 14 days. As to the method: During the study, physical examination, vital signs, ECG, and clinical laboratory tests were conducted. The Modified Observers Assessment of Anesthesia and Sedation, (MOASS) and the Columbia Suicide were performed.

For data set [2] the test system is unchanged. The experiment in a line: Open label trial, Hamilton Depression Rating Scale (HAM-D). The data set is classed as in vivo, human. Particulars: one patient. As to the method: (§1) The study is a two-week open label trial in women that are perimenopausal with depression during which patients were treated with an oral formulation of Compound 1 in adjunct to standard antidepressant treatment.
[…] Participants were administered daily doses of Compound 1 (up to 120 mg qPM, including 15 mg once a day, 20 mg once a day, 25 mg once a day, 30 mg once a day, 35 mg once a day, 40 mg once a day, 45 mg once a day, 50 mg once a day, 55 mg once a day, 60 mg once a day, 65 mg once a day, 70 mg once a day, 75 mg once a day, 80 mg once a day, 85 mg once a day, 90 mg once a day, 95 mg once a day, 100 mg once a day, 105 mg once a day, 110 mg once a day, 115 mg once a day and 120 mg once a day) for 14 days.
The Primary efficacy outcome was measured by the Hamilton Depression Rating Scale (HAM-D). The HAM-D was administered at baseline (Day 1, predose), Day 4, Day 8, Day 15, Day 21 and Day 28.
HAM-D Response was defined as a reduction from baseline of >50% in total HAM-D score. HAM-D remission was defined as a total HAM-D score of <7.

For data set [3] the test system is unchanged. The experiment in a line: Open label trial, Perimenopausal Depression Questionnaire (Meno-D). The note with it: one patient, 60 mg once a day. The data set is classed as in vivo, human.
Text: The Meno-D is a perimenopausal depression rating scale consisting of 12 items, each items is scored on a 5-point scale (ranging from 0 to 4) (Kulkami J, et al., Development and validation of a new rating scale for perimenopausal depression-the Meno-D. Transl Psychiatry. 2018 Jun. 28; 8(1):123). The total score of the 12 items ranges from […] with higher scores indicating more severe perimenopausal depression. The MENO-D has five factors (or domains): Self (four items), Sexual (two items), Somatic (two items), Cognitive (two items) and Sleep (two items). MENO-D assesses the patient's self-esteem, sense of isolation, paranoid thinking, anxiety, interest in socialising, changes in libido and sexual activity, any decrease in energy, physical pain, changes in weight, subjective changes in memory and concentration, and increases in irritability and/or sleep disturbances.
as §1
(§2) Treatment Period: The treatment period was 14 days in duration. Participants were administered daily doses of Compound 1 (up to 120 mg qPM, including 15 mg once a day, 20 mg once a day, 25 mg once a day, 30 mg once a day, 35 mg once a day, 40 mg once a day, 45 mg once a day, 50 mg once a day, 55 mg once a day, 60 mg once a day, 65 mg once a day, 70 mg once a day, 75 mg once a day, 80 mg once a day, 85 mg once a day, 90 mg once a day, 95 mg once a day, 100 mg once a day, 105 mg once a day, 110 mg once a day, 115 mg once a day and 120 mg once a day) for 14 days.
(§3) Secondary outcome measure was by the Clinical Global Impression (CGI), DSM-V MDD Anxious Distress Specifier, the Hamilton Anxiety Rating Scale (HAM-A), the Montgomery-Asberg Depression Rating Scale (MADRS), the Perimenopausal Depression Questionnaire (Meno-D), the Pittsburgh Sleep Quality Index (PSQI), the revised Sabbastberg Sexual Function Scale, the Symptoms of Depression Questionnaire (SDQ), and a vasomotor symptom diary.

The conditions of data set [4]: human, in vivo, 30 mg.
Protocol: (§4) The Day 1 dose was administered after a minimum of 10 hour fasting. No additional fluid intake was allowed until 1 hour after drug administration. A standard meal was given at least 4 hours post-dose. The Day 5 dose was administered following a high-fat, high calorie meal. Participants remained at the clinical site for a total of 8 days to complete PK sampling after the second dose.
(§5) Pharmacokinetic variables (including but not limited to Cmax, Tmax and AUC(0-last)) were calculated using non-compartmental analysis.
Data set [5] can be described thus: Food Effect Cohort (Cohort 4), plasma pharmacokinetics fasted vs fed. Particulars: Cohort 4, single 30 mg.
Protocol: as §4, §5
Data set [6] in a line: Multiple escalating dose study, plasma pharmacokinetics, Cohorts 1-3. The data set is classed as in vivo, human.
Protocol: Healthy subjects aged 18 to 55 years were treated with an oral suspension of Compound 1 to study the safety, tolerability, pharmacokinetics and pharmacodynamics of Compound 1 in healthy subjects.
The study was a randomized, double-blind, placebo-controlled multiple escalating dose study comprised of 3 cohorts that each received an oral suspension. Each cohort consisted of two groups: one group treated with Compound 1 and another treated with placebo. In each cohort, the ratio of Compound 1-treated subjects to placebo-treated subjects was 3:1.
The Compound 1-treated subjects of Cohort 1 were treated with 15.0 mg of Compound 1 once per day (QD). The Compound 1-treated subjects of Cohort 2 were treated with 30.0 mg of Compound 1 QD. The Compound 1-treated subjects of Cohort 3 were treated with 60.0 mg of Compound 1 QD.
Patients in each cohort were treated with Compound 1 for 14 consecutive days, unless dosing was halted by the Safety Review Committee (SRC). The dosing of subjects in each of the cohorts was staggered with the decision to dose escalate based on SRC review of a minimum of 14 days of observation of safety and tolerability data and review of the available plasma PK data from the preceding cohort(s). Thus, dose escalation was predicated on tolerability of the prior cohorts.
Compound 1 was administered under fasted conditions (no food or drink, except water, for at least 10 hours prior to dosing). Immediately after administration of Compound 1, the subject was be administered 240 mL water. No additional fluid intake was allowed until 1 hour after Compound 1 administration.
Cohort 1 subjects received a single 15.0 mg dose of a Compound 1 suspension on the morning of Days 1-14. Cohort 2 subjects received a single 30.0 mg dose of a Compound 1 suspension on the morning of Days 1-14. Cohort 3 subjects received a single 60.0 mg dose of a Compound 1 suspension on the morning of Days 1-14. For all cohorts, the last treatment was administered on the morning of Day 14.
Plasma samples were analyzed to determine Compound 1 concentrations using a validated assay method. Pharmacokinetic variables (including but not limited to Cmax, Tmax and AUC(0-last)) were calculated using non-compartmental analysis. PK parameters for Compound 1 were derived from the plasma concentration data using non-compartmental analysis with Phoenix™ WinNonlin® v 8.0 (Pharsight Corporation, USA).
Blood (Cohorts 1-3): For each cohort, blood samples were collected on Days 1, 2, 3, 4, 5, 6 and 14 at the following time points: Day 1 at pre-dose (0 hour), 0.25, 0.5, 0.75, 1, 1.5, 2, 2.5, 3, 4, 6, 8, 12, 16 h post-dose; Day 2 at pre-dose (24 h), Day 3 at pre-dose (48 h), Day 4 at pre-dose (72 h), Day 5 at pre-dose (96 h), Day 6 at pre-dose (120 h); Day 14 at pre-dose 0.25, 0.5, 0.75, 1, 1.5, 2, 2.5, 3, 4, 6, 8, 12, 16, 24, 36, 48, and 72 hours. Trough level blood samples were collected on Days 2, 3, 4, 5, 6 and 14, prior to the morning dose administrations.
Descriptive statistics were calculated for plasma and urine PK parameter and concentration data, and summarized by study day and time point. Arithmetic means, coefficient of variation (CV), standard deviation, median, minimum, and maximum values, and number of observations were calculated for all PK parameters and trough concentration data. Except for Tmax, the geometric mean, geometric standard deviation, and geometric CV were provided for all PK parameter and concentration data. […]
The test system of data set [7] is women that are perimenopausal with depression. Description: Open label trial, vasomotor symptom diary (hot flushes). It counts as in vivo, human. The note with it: one patient, 60 mg once a day, by Day 4 (baseline 9 per day). As to the method: as §1, §2, §3

What is called Cmax is the maximum level reached in the sampled fluid or tissue. Turning to `COC[C@@]1(O)CC[C@@]2(C)[C@@H](CC[C@@H]3[C@@H]2CC[C@]2(C)[C@@H](C(=O)Cn4ccnc4)CC[C@@H]32)C1` [Compound 1, 3α-Hydroxy-3β-methoxymethyl-21-(1′-imidazolyl)-5α-pregnan-20-one], in data set [1], the adverse event reported entry is “mild epigastric pain after dosing” and the tolerability result was “well-tolerated”. In data set [2] (60 mg once a day for 14 days, Day 15 (baseline 28)), this molecule had an HAM-D score of 8. For the same molecule, the “improvement in HAM-D score” value in data set [2] (60 mg once a day for 14 days, adjunct to fluoxetine, Day 8) is on record as 48%. Further, in data set [2] (60 mg once a day for 14 days, adjunct to fluoxetine, Day 15), the “improvement in HAM-D score from baseline value” was determined as 71%. Moreover, in data set [2] (60 mg once a day, Day 15), the “HAM-D Remission criterion (total HAM-D score of <7)” value is on record as “nearly met the HAM-D Remission criterion” and the “HAM-D Response criterion (reduction from baseline of >50%)” value is recorded as “met the HAM-D Response criterion”. The “improvement in MENO-D from baseline value” in data set [3] (Day 8 (baseline 28)) came to 54%. Also, the MENO-D classification result in data set [3] (Day 8 and Day 15) is on record as “no longer met classification for perimenopausal depression requiring clinical attention”. Moreover, in data set [3] (Day 15), the “improvement in MENO-D factor Cognitive” value was found to be 100%, the “improvement in MENO-D factor Self” value was 63%, the “improvement in MENO-D factor Sexual” value is recorded as 43% and the “improvement in MENO-D factor Sleep” value was determined as 40%. Moreover, the “improvement in MENO-D factor Somatic” value in data set [3] (Day 15) is reported as 50%. Also, the “improvement in MENO-D from baseline value” in data set [3] (Day 15 (baseline 28)) is reported as 57%. For the same molecule, the “Tmax, fasting compared to fed conditions” value in data set [4] is given as “tendency for a shorter Tmax”. In data set [5], the “t1/2, fasted versus fed” value was “similar”. Also, the “accumulation factor of the dosing interval (ratio of AUCDay14/AUCDay1)” value in data set [6] (Cohort 1, 15.0 mg QD) is given as “approximately 1.25”. The same molecule yielded an AUCinf in data set [6] (Cohort 1, 15.0 mg QD, Day 14 steady state, Geo Mean) of 600.228 ng·h/mL. The “accumulation factor of the dosing interval (ratio of AUCDay14/AUCDay1)” value in data set [6] (Cohort 2, 30.0 mg QD) is “approximately 1.25”. Further, in data set [6] (human, in vivo, 15 mg), the AUC0-tau amounted to 361.762 ng·h/mL and the Cmax is recorded as 56.016 ng/mL. Besides, the “decrease in frequency of hot flushes” value in data set [7] is 66%.

Consider `CNCCC(Oc1ccc(C(F)(F)F)cc1)c1ccccc1` (stereo not drawn) [fluoxetine, reference compound], for which the “clinical response of depression symptoms (HAM-D score and clinical evaluation)” value in data set [2] (15 mg daily taken for 8 months, before Compound 1) was “had not demonstrated a sufficient clinical response”.
